Measured values from PubChem BioAssay (NCI).
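96-well plates; 48 h exposure; 5 concentrations. Endpoints by linear interpolation between flanking doses. Not reached: highest tested concentration assigned. The concentration for full growth arrest is given as TGI.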

Columns and labels:
Test in all cases: growth of human tumour cells (NCI), 48 h
[1] = tested on: 786-0 renal
[2] = tested on: A498 renal
[3] = tested on: A549 NSCLC
[4] = tested on: ACHN renal
[5] = tested on: BT-549 breast
[6] = tested on: CAKI-1 renal
[7] = tested on: CCRF-CEM leukemia
[8] = tested on: COLO 205 colon
[9] = tested on: DU-145 prostate
[10] = tested on: EKVX NSCLC
[11] = tested on: HCC-2998 colon
[12] = tested on: HCT-116 colon
[13] = tested on: HCT-15 colon
[14] = tested on: HOP-62 NSCLC
[15] = tested on: HOP-92 NSCLC
[16] = tested on: HS 578T breast
[17] = tested on: HT29 colon
[18] = tested on: IGROV1 ovarian
[19] = tested on: K-562 leukemia
[20] = tested on: KM12 colon
[21] = tested on: LOX IMVI melanoma
[22] = tested on: M14 melanoma
[23] = tested on: MALME-3M melanoma
[24] = tested on: MCF7 breast
[25] = tested on: MDA-MB-231 breast
[26] = tested on: MDA-MB-435
[27] = tested on: MDA-N
[28] = tested on: MOLT-4 leukemia
[29] = tested on: NCI-H23 lung
[30] = tested on: NCI-H460 lung
[31] = tested on: NCI-H522 lung
[32] = tested on: NCI/ADR-RES ovarian
[33] = tested on: OVCAR-3 ovarian
[34] = tested on: OVCAR-4 ovarian
[35] = tested on: OVCAR-5 ovarian
[36] = tested on: OVCAR-8 ovarian
[37] = tested on: PC-3 prostate
[38] = tested on: RPMI-8226 leukemia
[39] = tested on: RXF 393 renal
[40] = tested on: SF-268 CNS
[41] = tested on: SF-295 CNS
[42] = tested on: SF-539 CNS
[43] = tested on: SK-MEL-2 melanoma
[44] = tested on: SK-MEL-28 melanoma
[45] = tested on: SK-MEL-5 melanoma
[46] = tested on: SK-OV-3 ovarian
[47] = tested on: SN12C renal
[48] = tested on: SNB-19 CNS
[49] = tested on: SNB-75 CNS
[50] = tested on: SR leukemia
[51] = tested on: SW-620 colon
[52] = tested on: T-47D breast
[53] = tested on: TK-10 renal
[54] = tested on: U251 CNS
[55] = tested on: UACC-257 melanoma
[56] = tested on: UACC-62 melanoma
[57] = tested on: UO-31 renal
[58] = tested on: NCI-H226 lung

O=C1/C(=C\c2cccc(Oc3ccccc3)c2)S(=O)(=O)C(c2ccccc2)N1c1cc(Cl)ccc1Cl (stereo not given)
TGI [1]: 37.4 µM
TGI [2]: > 100 µM
TGI [3]: > 100 µM
TGI [4]: 44.6 µM
TGI [5]: 35.6 µM
TGI [6]: > 100 µM
TGI [7]: 40.7 µM
TGI [8]: 48.4 µM
TGI [9]: 76.7 µM
TGI [10]: > 100 µM
TGI [11]: 56.6 µM
TGI [12]: 21.2 µM
TGI [13]: 74.6 µM
TGI [14]: 43.3 µM
TGI [15]: 40.4 µM
TGI [16]: 88.1 µM
TGI [17]: > 100 µM
TGI [18]: 56.2 µM
TGI [19]: > 100 µM
TGI [20]: 76.9 µM
TGI [21]: 23.8 µM
TGI [22]: 44.1 µM
TGI [23]: 42.4 µM
TGI [24]: 45.1 µM
TGI [25]: > 100 µM
TGI [26]: 36.5 µM
TGI [27]: 28.8 µM
TGI [28]: > 100 µM
TGI [29]: 44.3 µM
TGI [30]: > 100 µM
TGI [31]: 40 µM
TGI [32]: 94.4 µM
TGI [33]: 41.9 µM
TGI [34]: > 100 µM
TGI [35]: 58.6 µM
TGI [36]: 32.7 µM
TGI [37]: > 100 µM
TGI [38]: > 100 µM
TGI [39]: 33.8 µM
TGI [40]: 42.3 µM
TGI [41]: 33.1 µM
TGI [42]: > 100 µM
TGI [43]: 76.9 µM
TGI [44]: 36.7 µM
TGI [45]: 33.3 µM
TGI [46]: 88.3 µM
TGI [47]: 35 µM
TGI [48]: 35.7 µM
TGI [49]: 69.6 µM
TGI [50]: > 100 µM
TGI [51]: 10.8 µM
TGI [52]: 82.4 µM
TGI [53]: 57.3 µM
TGI [54]: > 100 µM
TGI [55]: 47.9 µM
TGI [56]: 36.7 µM
TGI [57]: 39.6 µM

CN(C)CCNC(=O)c1cccc2c(NC(CCCN=C(N)N)C(=O)O)c3ccccc3[n+](C)c12 (stereo not given)
TGI [1]: > 100 µM
TGI [2]: > 100 µM
TGI [3]: > 100 µM
TGI [4]: > 100 µM
TGI [5]: > 100 µM
TGI [8]: > 100 µM
TGI [9]: > 100 µM
TGI [10]: > 100 µM
TGI [11]: > 100 µM
TGI [12]: > 100 µM
TGI [13]: > 100 µM
TGI [14]: > 100 µM
TGI [16]: > 100 µM
TGI [17]: > 100 µM
TGI [18]: > 100 µM
TGI [19]: > 100 µM
TGI [20]: > 100 µM
TGI [21]: > 100 µM
TGI [22]: > 100 µM
TGI [23]: > 100 µM
TGI [24]: > 100 µM
TGI [25]: > 100 µM
TGI [26]: > 100 µM
TGI [27]: > 100 µM
TGI [28]: > 100 µM
TGI [58]: 94.5 µM
TGI [29]: > 100 µM
TGI [30]: > 100 µM
TGI [32]: 80.9 µM
TGI [33]: > 100 µM
TGI [34]: > 100 µM
TGI [35]: > 100 µM
TGI [36]: > 100 µM
TGI [37]: > 100 µM
TGI [38]: > 100 µM
TGI [40]: 92.6 µM
TGI [41]: > 100 µM
TGI [42]: > 100 µM
TGI [43]: > 100 µM
TGI [44]: > 100 µM
TGI [45]: > 100 µM
TGI [46]: > 100 µM
TGI [47]: > 100 µM
TGI [48]: > 100 µM
TGI [49]: > 100 µM
TGI [50]: > 100 µM
TGI [51]: > 100 µM
TGI [52]: > 100 µM
TGI [53]: > 100 µM
TGI [54]: > 100 µM
TGI [55]: > 100 µM
TGI [56]: > 100 µM
TGI [57]: > 100 µM
